Test results: patent US11414416B1, “Compounds and uses thereof” (Foghorn Therapeutics Inc., priority 2019, dated 2022)
pIC50: −log10 of the molar value.

Columns and labels:
BRD9 bromodomain = BRD9 bromodomain (Homo sapiens (Human), UniProt Q9H8M2); test: BRD9 bromodomain TR-FRET competition binding assay; details: Table 4; competition with biotinylated ligand, 3 nM Flag-BRD9, 90 minutes
How it was run: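 TEV-cleaved Flag-BRD9 (P133-K239, 3 nM) competed against 3.75 nM biotinylated ligand, with 7.5 nM APC-streptavidin and 0.2 nM Eu-W1024 anti-FLAG, in HEPES pH 7.4, NaCl, TCEP, Tween-20, BSA. Compounds were serially diluted 3-fold; after 90 min at room temperature the 665/615 nm emission ratio was read.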

[1] = biological target: Nanoluciferase-BRD9 fusion protein (Homo sapiens (Human), UniProt Q9H8M2); test: SYO1 BRD9 NanoLuc degradation assay; type: cell-based; details: Table 5A, SYO-1 cells expressing 3×FLAG-NLuc-BRD9, 6 hours; for DC50: read-out: SYO1 BRD9-NanoLuc degradation IC50
Chain of Nanoluciferase-BRD9 fusion protein (Q9H8M2 whole entry, the tested form may be a part): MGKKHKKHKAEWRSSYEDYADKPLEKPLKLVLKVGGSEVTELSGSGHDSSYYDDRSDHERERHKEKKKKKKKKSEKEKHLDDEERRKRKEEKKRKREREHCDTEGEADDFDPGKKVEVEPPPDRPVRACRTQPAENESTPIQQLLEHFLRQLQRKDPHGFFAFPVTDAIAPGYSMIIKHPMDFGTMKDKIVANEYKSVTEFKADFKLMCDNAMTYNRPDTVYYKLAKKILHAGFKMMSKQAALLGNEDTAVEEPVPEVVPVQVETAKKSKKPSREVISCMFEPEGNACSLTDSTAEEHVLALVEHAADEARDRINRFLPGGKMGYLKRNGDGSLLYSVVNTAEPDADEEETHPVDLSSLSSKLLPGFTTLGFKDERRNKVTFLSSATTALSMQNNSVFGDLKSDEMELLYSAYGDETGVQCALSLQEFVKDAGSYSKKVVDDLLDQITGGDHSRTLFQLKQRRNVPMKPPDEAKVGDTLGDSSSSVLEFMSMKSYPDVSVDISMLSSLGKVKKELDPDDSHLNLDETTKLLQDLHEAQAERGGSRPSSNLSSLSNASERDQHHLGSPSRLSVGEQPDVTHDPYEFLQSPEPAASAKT
How it was run: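 Degradation was read as loss of nanoluciferase signal (Nano-Glo) after 6 h compound exposure in a stable SYO-1 line carrying 3×FLAG-NLuc-BRD9 (8000 cells/well). Normalised between DMSO (high) and a 1 μM known BRD9 degrader (low).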

Chain of BRD9 bromodomain (Q9H8M2 133-239): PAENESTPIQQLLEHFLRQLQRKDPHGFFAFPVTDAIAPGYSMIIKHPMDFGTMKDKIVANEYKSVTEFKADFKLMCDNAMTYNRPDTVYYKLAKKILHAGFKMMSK

| Compound | pIC50 (BRD9 bromodomain) | DC50 [1] [nM] | pIC50 [1] |
| --- | --- | --- | --- |
| COc1cc(-c2cn(C)c(=O)c3cnccc23)cc(OC)c1CN1CC(C(=O)NCCOCCOCCNc2cccc3c2C(=O)N(C2CCC(=O)NC2=O)C3=O)C1 (stereo not shown) [Compound D7, 1-[[2,6-dimethoxy-4-(2-methyl-1-oxo-1,2-dihydro-2,7-naphthyridin-4-yl)phenyl]methyl]-N-[2-[2-(2-[[2-(2,6-dioxopiperidin-3-yl)-1,3-dioxo-2,3-dihydro-1H-isoindol-4-yl]amino]ethoxy)ethoxy]ethyl]azetidine-3-carboxamide formic acid] | > 8.00 | 10 to 100 | – |
| COc1cc(-c2cn(C)c(=O)c3cnccc23)cc(OC)c1CN1CCC12CN(C(=O)CCOCCOc1ccc3c(c1)C(=O)N(C1CCC(=O)NC1=O)C3=O)C2 (stereo not shown) [Compound D98] | 6.00 to 7.00 | – | 6.00 to 7.00 |
| COc1cc(-c2cn(C)c(=O)c3cnccc23)cc(OC)c1CN(C)C1CCC2CN(C(=O)CCOCCOc3cccc4c3C(=O)N(C3CCC(=O)NC3=O)C4=O)CC21 (stereo not shown) [Compound D161] | > 8.00 | 10 to 100 | – |
| COc1cc(-c2cn(C)c(=O)c3cnccc23)cc(OC)c1CN1CCC(OC2CCN(C(=O)CCOCCOc3cccc4c3C(=O)N(C3CCC(=O)NC3=O)C4=O)C2)CC1 (stereo not shown) [Compound D114] | > 8.00 | 10 to 100 | – |
| COc1cc(-c2cn(C)c(=O)c3cnccc23)cc(OC)c1CN(C)C1CC2CC1CN2C(=O)CCOCCOc1ccc2c(c1)C(=O)N(C1CCC(=O)NC1=O)C2=O (stereo not shown) [Compound D171] | 7.00 to 8.00 | – | > 8.00 |
| COc1cc(-c2cn(C)c(=O)c3cnccc23)cc(OC)c1CN1CCC(COC2CCN(C(=O)CCOCCOc3ccc4c(c3)C(=O)N(C3CCC(=O)NC3=O)C4=O)C2)CC1 (stereo not shown) [Compound D124] | > 8.00 | – | > 8.00 |
| COc1cc(-c2cn(C)c(=O)c3cnccc23)cc(OC)c1CN1CC[C@H]1CN(C)Cc1cccc2c1C(=O)N(C1CCC(=O)NC1=O)C2=O (stereo partly drawn) [Compound D27, 4-(((((S)-1-(2,6-dimethoxy-4-(2-methyl-1-oxo-1,2-dihydro-2,7-naphthyridin-4-yl)benzyl)azetidin-2-yl)methyl)(methyl)amino)methyl)-2-(2,6-dioxopiperidin-3-yl)isoindoline-1,3-dione] | > 8.00 | 10 to 100 | – |
| COc1cc(-c2cn(C)c(=O)c3cnccc23)cc(OC)c1CN1CC(C(=O)N2CCC(C3CCN(C(=O)COc4cccc5c4C(=O)N(C4CCC(=O)NC4=O)C5=O)CC3)CC2)C1 (stereo not shown) [Compound D6, 4-[2-[1-(1-[[2,6-dimethoxy-4-(2-methyl-1-oxo-1,2-dihydro-2,7-naphthyridin-4-yl)phenyl]methyl]azetidine-3-carbonyl)-[4,4-bipiperidin]-1-yl]-2-oxoethoxy]-2-(2,6-dioxopiperidin-3-yl)-2,3-dihydro-1H-isoindole-1,3-dione formic acid] | > 8.00 | – | > 8.00 |
| COc1cc(-c2cn(C)c(=O)c3cnccc23)cc(OC)c1CN1CC(CC(=O)NCCCCCCCCNc2cccc3c2C(=O)N(C2CCC(=O)NC2=O)C3=O)C1 (stereo not shown) [Compound D9, 2-(1-[[2,6-dimethoxy-4-(2-methyl-1-oxo-1,2-dihydro-2,7-naphthyridin-4-yl)phenyl]methyl]azetidin-3-yl)-N-(8-[[2-(2,6-dioxopiperidin-3-yl)-1,3-dioxo-2,3-dihydro-1H-isoindol-4-yl]amino]octyl)acetamide formic acid] | > 8.00 | – | > 8.00 |
| COc1cc(-c2cn(C)c(=O)c3cnccc23)cc(OC)c1CN1CC(C(=O)NCCS(=O)(=O)CCNc2cccc3c2C(=O)N(C2CCC(=O)NC2=O)C3=O)C1 (stereo not shown) [Compound D30, 1-(2,6-dimethoxy-4-(2-methyl-1-oxo-1,2-dihydro-2,7-naphthyridin-4-yl)benzyl)-N-(2-((2-((2-(2,6-dioxopiperidin-3-yl)-1,3-dioxoisoindolin-4-yl)amino)ethyl)sulfonyl)ethyl)azetidine-3-carboxamide] | > 8.00 | 10 to 100 | – |
| COc1cc(-c2cn(C)c(=O)c3cnccc23)cc(OC)c1CNCCOCC(=O)N1CC(COc2ccc3c(c2)C(=O)N(C2CCC(=O)NC2=O)C3=O)C1 (stereo not shown) [Compound D74, 5-[(1-[2-[2-([[2,6-dimethoxy-4-(2-methyl-1-oxo-2,7-naphthyridin-4-yl)phenyl]methyl]amino)ethoxy]acetyl]azetidin-3-yl)methoxy]-2-(2,6-dioxopiperidin-3-yl)isoindole-1,3-dione formic acid] | > 8.00 | 100 to 1000 | – |
| COc1cc(-c2cn(C)c(=O)c3cnccc23)cc(OC)c1CN1CCC2(CC1)CN(C(=O)CCCCOc1cccc3c1C(=O)N(C1CCC(=O)NC1=O)C3=O)CCO2 (stereo not shown) [Compound D40, 4-[[5-(9-[[2,6-dimethoxy-4-(2-methyl-1-oxo-2,7-naphthyridin-4-yl)phenyl]methyl]-1-oxa-4,9-diazaspiro[5.5]undecan-4-yl)-5-oxopentyl]oxy]-2-(2,6-dioxopiperidin-3-yl)isoindole-1,3-dione formic acid] | > 8.00 | – | > 8.00 |
| COc1cc(-c2cn(C)c(=O)c3cnccc23)cc(OC)c1CN1CC2(CC(NC(=O)CCOCCOc3ccc4c(c3)C(=O)N(C3CCC(=O)NC3=O)C4=O)C2)C1 (stereo not shown) [Compound D101] | > 8.00 | 100 to 1000 | – |
| COc1cc(-c2cn(C)c(=O)c3cnccc23)cc(OC)c1CN1CCC(C2CCN(C(=O)CCOCCOc3cccc4c3C(=O)N(C3CCC(=O)NC3=O)C4=O)C2)CC1 (stereo not shown) [Compound D96] | > 8.00 | 10 to 100 | – |

The next lines start with the values.

| pIC50 (BRD9 bromodomain) | DC50 [1] [nM] | pIC50 [1] | Compound |
| --- | --- | --- | --- |
| > 8.00 | – | > 8.00 | COc1cc(-c2cn(C)c(=O)c3cnccc23)cc(OC)c1CN1CCN(CCCOc2ccc3c(c2)C(=O)N(C2CCC(=O)NC2=O)C3=O)CC1 (stereo not shown) [Compound D53, 5-[3-(4-[[2,6-dimethoxy-4-(2-methyl-1-oxo-2,7-naphthyridin-4-yl)phenyl]methyl]piperazin-1-yl)propoxy]-2-(2,6-dioxopiperidin-3-yl)isoindole-1,3-dione] |
| > 8.00 | – | > 8.00 | COc1cc(-c2cn(C)c(=O)c3cnccc23)cc(OC)c1CN1CC(C(=O)N(C)CCCCCCCCNc2cccc3c2C(=O)N(C2CCC(=O)NC2=O)C3=O)C1 (stereo not shown) [Compound D14, 1-[[2,6-dimethoxy-4-(2-methyl-1-oxo-1,2-dihydro-2,7-naphthyridin-4-yl)phenyl]methyl]-N-(8-[[2-(2,6-dioxopiperidin-3-yl)-1,3-dioxo-2,3-dihydro-1H-isoindol-4-yl]amino]octyl)-N-methylazetidine-3-carboxamide] |
| > 8.00 | 10 to 100 | – | COc1cc(-c2cn(C)c(=O)c3cnccc23)cc(OC)c1CN1CCC2(CC1)CN(C(=O)CCOCCOc1ccc3c(c1)C(=O)N(C1CCC(=O)NC1=O)C3=O)C2 (stereo not shown) [Compound D119] |
| > 8.00 | – | > 8.00 | COc1cc(-c2cn(C)c(=O)c3cnccc23)cc(OC)c1CN(C)CCCN1CCC(Oc2ccc3c(c2)C(=O)N(C2CCC(=O)NC2=O)C3=O)CC1 (stereo not shown) [Compound D52, 5-((1-(3-((2,6-dimethoxy-4-(2-methyl-1-oxo-1,2-dihydro-2,7-naphthyridin-4-yl)benzyl) (methyl)amino)propyl)piperidin-4-yl)oxy)-2-(2,6-dioxopiperidin-3-yl)isoindoline-1,3-dione formic acid] |
| 7.00 to 8.00 | – | > 8.00 | COc1cc(-c2cn(C)c(=O)c3cnccc23)cc(OC)c1CN1CC[C@@H]1C(=O)NCCCCCCCCNc1cccc2c1C(=O)N(C1CCC(=O)NC1=O)C2=O (stereo partly shown) [Compound D10] |
| > 8.00 | – | > 8.00 | COc1cc(-c2cn(C)c(=O)c3cnccc23)cc(OC)c1CN1CCC2CCN(C(=O)CCOCCOc3ccc4c(c3)C(=O)N(C3CCC(=O)NC3=O)C4=O)CC21 (stereo not shown) [Compound D123] |
